Data set [1] can be described thus: Toxicity and toxicokinetics studies, dog. It is filed as in vivo, beagle dogs.
Experimental: Nominal dose values and sampling times were used for calculations. Any concentration reported as BLQ (LLOQ<1.0 ng/mL) was set equal to zero. Toxicokinetic analyses included Cmax, Tmax, AUC0-24, t1/2, RA Cmax, and RA AUC0-24.
Following this, human dose exposure was simulated using a combined whole blood and plasma compartment PK model using allometry and whole blood parameter estimates for the absorption rate constants and bioavailability per animal species. Absolute dose administration was used for modeling. V1, CL, V2, and Q parameters were extrapolated to human using allometric scaling. […] Human body weight was set to 75 kg.
Data set [2] has as its system LU5202 [small cell lung cancer (SCLC)] patient-derived xenograft (PDX) model. It counts as in vivo. The procedure: 8-week-old NOD/SCID female mice (n=59) were split into two cohorts. A total of 29 mice were enrolled in cohort 1 of the study. A total of 30 mice were enrolled in […] of the study. When the average tumor volume reached 150-250 mm^3, all animals were randomly allocated to the 6 different study groups using Study Log software (Table 24). Animals were monitored weekly for palpable tumors, or any changes in appearance or behavior. Once tumors were palpable, tumors were measured at least once weekly using calipers. Body weight was measured at least 2 times per week following randomization and initiation of treatment.

Data set [3] is described as follows: First-in-human clinical study: safety and tolerability. It counts as in vivo. The procedure: All INX-315 tablets were taken at approximately the same time(s) each day.
Cohort 1 enrollment of 6 subjects dosed at 100 mg oral QD was completed in October of 2023.

Data set [4] can be described thus: Plasma protein binding, human. It is filed as in vitro ADME. The source says: (§1) Additionally, the whole blood-to-plasma ratio (KWB/P) in humans is 6.20, which also exceeds the other species tested (Table 7).
Data set [5] is described as follows: Plasma protein binding, rat. It counts as in vitro ADME.
Source text: as §1

Molecules are shown by their SMILES. Read-outs that look alike come from different tables or passages of the source.

The text below walks through data of US20260041640A1 (INCYCLIX BIO, LLC, priority 2023, published 2026).

As for `NS(=O)(=O)c1ccc(Nc2ncc3cc4n(c3n2)C2(CCCCC2)C(=O)NN4)cc1` [INX-315], in data set [1] (beagle, dog, in vivo), the “Absorption rate constant (KA)” value worked out at 0.18 h⁻¹. Further, the “HED of the highest nonseverely toxic dose (HNSTD)” value in data set [1] (dogs) is listed as 16,216 mg/day. Besides, the “safety margin of 100 mg QD starting dose vs HED of HNSTD” value in data set [1] (dogs) is listed as 160 fold. Further, the tumor growth inhibition worked out at 70% in data set [2] (cohort 1, INX-315 100 mg/kg added to chemotherapy (cisplatin + etoposide)); 62% in data set [2] (cohort 1, monotherapy 100 mg/kg BID PO); 66% in data set [2] (cohort 1, monotherapy 150 mg/kg BID PO); 94% in data set [2] (cohort 2, INX-315 100 mg/kg added to chemotherapy); 70% in data set [2] (cohort 2, monotherapy 100 mg/kg BID PO); 87% in data set [2] (cohort 2, monotherapy 150 mg/kg BID PO). In data set [2] (cohort 1, chemotherapy and INX-315), the “body weight / tolerability” value was “lost weight and did not tolerate the treatment well”. Also, the safety issues entry in data set [3] (200 mg QD) was “no new safety issues”. Moreover, the DLTs result in data set [3] (Cohort 1, 100 mg QD) was “No DLTs”. Also, in data set [3] (Cohort 1, 100 mg QD), the “changes in complete blood counts or clinical chemistries” value is given as “No significant changes”. Moreover, in data set [3] (Cohort 1, 100 mg QD), the tolerability result is “well tolerated”. Moreover, the fraction unbound in data set [4] is 0.056; in data set [5], 0.018.

Usually fraction unbound stands for free concentration divided by total concentration. A low value points to little free substance.
